Laboratory results reported in ChEMBL document CHEMBL5154740, “Novel Aurora A and Protein Kinase C (α, β1, β2, and θ) Multitarget Inhibitors: Impact of Selenium Atoms on the Potency and Selectivity” (J Med Chem, 2022).
The source made the active and inactive calls. No cut-off for these calls is given here.

Tests used:
[1] = target: T1, Serine/threonine-protein kinase TBK1 (Homo sapiens) (UniProt Q9UHD2); assay: Inhibition of TBK1 (unknown origin) at 50 nM by Z'LYTE screening method relative to control
T1 sequence (whole entry): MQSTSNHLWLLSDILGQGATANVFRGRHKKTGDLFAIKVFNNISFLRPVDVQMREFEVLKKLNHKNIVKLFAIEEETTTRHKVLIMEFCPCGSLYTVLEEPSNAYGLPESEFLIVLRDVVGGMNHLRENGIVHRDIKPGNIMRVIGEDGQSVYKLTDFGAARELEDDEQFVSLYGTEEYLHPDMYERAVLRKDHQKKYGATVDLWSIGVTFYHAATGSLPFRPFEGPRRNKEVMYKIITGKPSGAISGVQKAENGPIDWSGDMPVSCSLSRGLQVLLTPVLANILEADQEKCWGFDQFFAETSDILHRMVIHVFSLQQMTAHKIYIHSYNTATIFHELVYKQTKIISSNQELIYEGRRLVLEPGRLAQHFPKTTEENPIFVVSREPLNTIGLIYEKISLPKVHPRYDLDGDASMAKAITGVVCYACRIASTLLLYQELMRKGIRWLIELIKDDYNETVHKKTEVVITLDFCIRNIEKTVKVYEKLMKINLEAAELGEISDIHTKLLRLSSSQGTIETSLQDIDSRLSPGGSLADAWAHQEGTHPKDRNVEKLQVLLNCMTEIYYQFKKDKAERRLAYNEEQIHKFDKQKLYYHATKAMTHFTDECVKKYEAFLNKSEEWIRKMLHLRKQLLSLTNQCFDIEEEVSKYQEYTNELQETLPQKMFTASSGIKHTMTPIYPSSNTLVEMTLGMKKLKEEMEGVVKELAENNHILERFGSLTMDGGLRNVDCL

[2] = target: Platelet-derived growth factor receptor alpha (Homo sapiens) (UniProt P16234); assay: Inhibition of PDGFRalpha (unknown origin) at 50 nM by Z'LYTE screening method relative to control
[3] = target: T2, Inhibitor of nuclear factor kappa-B kinase subunit beta (Homo sapiens) (UniProt O14920); assay: Inhibition of IKKbeta (unknown origin) at 50 nM by Z'LYTE screening method relative to control
T2 sequence (whole entry): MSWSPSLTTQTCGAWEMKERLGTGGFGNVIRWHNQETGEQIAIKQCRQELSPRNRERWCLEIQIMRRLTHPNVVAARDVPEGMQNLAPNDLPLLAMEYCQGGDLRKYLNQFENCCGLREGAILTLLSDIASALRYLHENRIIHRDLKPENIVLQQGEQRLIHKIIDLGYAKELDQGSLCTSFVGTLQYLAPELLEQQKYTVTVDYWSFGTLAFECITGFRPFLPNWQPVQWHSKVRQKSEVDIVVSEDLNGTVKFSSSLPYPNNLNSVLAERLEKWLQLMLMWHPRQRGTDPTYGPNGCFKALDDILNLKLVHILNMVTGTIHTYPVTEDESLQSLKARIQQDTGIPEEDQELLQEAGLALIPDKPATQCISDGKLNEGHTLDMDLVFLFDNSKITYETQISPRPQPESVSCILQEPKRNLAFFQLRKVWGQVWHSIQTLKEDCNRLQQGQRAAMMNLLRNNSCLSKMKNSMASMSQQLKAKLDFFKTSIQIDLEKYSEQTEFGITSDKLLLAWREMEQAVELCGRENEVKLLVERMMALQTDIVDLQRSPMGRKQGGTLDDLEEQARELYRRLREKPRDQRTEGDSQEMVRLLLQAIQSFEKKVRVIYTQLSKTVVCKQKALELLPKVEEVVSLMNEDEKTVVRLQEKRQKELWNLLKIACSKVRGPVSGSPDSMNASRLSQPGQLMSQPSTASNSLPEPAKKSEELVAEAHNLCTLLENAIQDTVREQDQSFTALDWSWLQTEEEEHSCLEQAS

[4] = target: Mast/stem cell growth factor receptor Kit (Homo sapiens) (UniProt P10721); assay: Inhibition of KIT (unknown origin) at 50 nM by Z'LYTE screening method relative to control
[5] = target: Calcium/calmodulin-dependent protein kinase type 1D (Homo sapiens) (UniProt Q8IU85); assay: Inhibition of CAMK1 delta (unknown origin) at 50 nM by Z'LYTE screening method relative to control
[6] = target: Serine/threonine-protein kinase B-raf (Homo sapiens) (UniProt P15056); assay: Inhibition of BRaf (unknown origin) at 50 nM by Z'LYTE screening method relative to control
[7] = target: Tyrosine-protein kinase JAK2 (Homo sapiens) (UniProt O60674); assay: Inhibition of JAK2 (unknown origin) at 50 nM by Z'LYTE screening method relative to control
[8] = target: T3, TGF-beta receptor type-1 (Homo sapiens) (UniProt P36897); assay: Inhibition of TGFBR1 (unknown origin) at 50 nM by Z'LYTE screening method relative to control
T3 sequence (whole entry): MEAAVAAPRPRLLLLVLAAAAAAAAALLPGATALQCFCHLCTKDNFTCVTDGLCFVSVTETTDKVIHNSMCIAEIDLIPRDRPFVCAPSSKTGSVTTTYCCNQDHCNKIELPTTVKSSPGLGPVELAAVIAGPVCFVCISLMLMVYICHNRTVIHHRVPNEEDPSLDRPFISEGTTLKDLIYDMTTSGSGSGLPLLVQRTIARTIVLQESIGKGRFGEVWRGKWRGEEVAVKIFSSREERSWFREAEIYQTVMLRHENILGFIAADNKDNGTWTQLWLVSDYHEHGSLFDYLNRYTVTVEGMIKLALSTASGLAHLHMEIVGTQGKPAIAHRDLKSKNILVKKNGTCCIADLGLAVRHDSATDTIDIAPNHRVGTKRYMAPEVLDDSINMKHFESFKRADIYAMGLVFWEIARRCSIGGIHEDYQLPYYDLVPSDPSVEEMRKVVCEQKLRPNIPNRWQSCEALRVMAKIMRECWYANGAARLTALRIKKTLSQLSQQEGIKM

[9] = target: cAMP-dependent protein kinase (PKA) (Homo sapiens) (UniProt P22694+P17612+P22612); assay: Inhibition of PKA (unknown origin) at 50 nM by Z'LYTE screening method relative to control; format: protein assay
[10] = target: Glycogen synthase kinase-3 beta (Homo sapiens) (UniProt P49841); assay: Inhibition of GSK3b (unknown origin) at 50 nM by Z'LYTE screening method relative to control
[11] = Toxicity in BALB/c mouse implanted with mouse 4T1 cells assessed as loss of body weight at 10 mg/kg, po administered 3 times a week for 30 days; format: organism-based; conditions: in vivo, 720 h, time 30 day
[12] = target: Cyclin-dependent kinase 5/CDK5 activator 1 (Homo sapiens) (UniProt Q00535+Q15078); assay: Inhibition of CDK5/p25 (unknown origin) at 50 nM by Z'LYTE screening method relative to control; format: protein-complex assay
MDA-MB-231 = assay: Inhibition of clonogenicity in human MDA-MB-231/M cells assessed as reduction in colony formation incubated for 7 days by crystal violet staining based analysis; format: functional, cell-based; conditions: time 7.0 day

Chain of Tyrosine-protein kinase JAK2 (Homo sapiens) (O60674 whole entry): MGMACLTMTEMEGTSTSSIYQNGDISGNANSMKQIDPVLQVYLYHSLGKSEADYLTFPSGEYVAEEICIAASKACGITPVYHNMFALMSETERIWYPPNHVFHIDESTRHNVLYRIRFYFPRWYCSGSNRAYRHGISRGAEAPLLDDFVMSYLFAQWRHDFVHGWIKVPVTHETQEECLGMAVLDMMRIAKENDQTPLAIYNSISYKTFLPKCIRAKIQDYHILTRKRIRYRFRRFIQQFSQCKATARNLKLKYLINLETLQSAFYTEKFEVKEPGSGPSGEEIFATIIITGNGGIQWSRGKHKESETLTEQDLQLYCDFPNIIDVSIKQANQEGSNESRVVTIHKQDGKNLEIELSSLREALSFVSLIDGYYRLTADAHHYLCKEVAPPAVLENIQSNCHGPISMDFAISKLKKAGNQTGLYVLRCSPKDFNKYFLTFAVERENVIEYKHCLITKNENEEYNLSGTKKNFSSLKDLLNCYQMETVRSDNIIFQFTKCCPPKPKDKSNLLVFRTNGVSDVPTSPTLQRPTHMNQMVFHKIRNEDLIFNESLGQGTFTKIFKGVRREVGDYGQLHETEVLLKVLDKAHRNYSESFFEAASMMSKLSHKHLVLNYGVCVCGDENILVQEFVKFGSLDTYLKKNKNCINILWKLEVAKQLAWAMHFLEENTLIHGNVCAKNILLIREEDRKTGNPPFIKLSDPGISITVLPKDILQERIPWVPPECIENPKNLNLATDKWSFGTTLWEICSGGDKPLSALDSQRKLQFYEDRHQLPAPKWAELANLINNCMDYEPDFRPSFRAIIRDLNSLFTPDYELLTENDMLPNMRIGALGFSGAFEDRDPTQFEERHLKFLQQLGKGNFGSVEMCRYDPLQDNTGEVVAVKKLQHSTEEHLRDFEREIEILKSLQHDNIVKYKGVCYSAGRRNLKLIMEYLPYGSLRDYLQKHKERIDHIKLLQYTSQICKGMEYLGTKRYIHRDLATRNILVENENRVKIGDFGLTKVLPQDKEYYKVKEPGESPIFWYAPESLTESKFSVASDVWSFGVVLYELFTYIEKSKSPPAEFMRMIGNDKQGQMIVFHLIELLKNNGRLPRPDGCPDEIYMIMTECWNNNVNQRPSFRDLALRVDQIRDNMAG
Chain of Mast/stem cell growth factor receptor Kit (Homo sapiens) (P10721 whole entry): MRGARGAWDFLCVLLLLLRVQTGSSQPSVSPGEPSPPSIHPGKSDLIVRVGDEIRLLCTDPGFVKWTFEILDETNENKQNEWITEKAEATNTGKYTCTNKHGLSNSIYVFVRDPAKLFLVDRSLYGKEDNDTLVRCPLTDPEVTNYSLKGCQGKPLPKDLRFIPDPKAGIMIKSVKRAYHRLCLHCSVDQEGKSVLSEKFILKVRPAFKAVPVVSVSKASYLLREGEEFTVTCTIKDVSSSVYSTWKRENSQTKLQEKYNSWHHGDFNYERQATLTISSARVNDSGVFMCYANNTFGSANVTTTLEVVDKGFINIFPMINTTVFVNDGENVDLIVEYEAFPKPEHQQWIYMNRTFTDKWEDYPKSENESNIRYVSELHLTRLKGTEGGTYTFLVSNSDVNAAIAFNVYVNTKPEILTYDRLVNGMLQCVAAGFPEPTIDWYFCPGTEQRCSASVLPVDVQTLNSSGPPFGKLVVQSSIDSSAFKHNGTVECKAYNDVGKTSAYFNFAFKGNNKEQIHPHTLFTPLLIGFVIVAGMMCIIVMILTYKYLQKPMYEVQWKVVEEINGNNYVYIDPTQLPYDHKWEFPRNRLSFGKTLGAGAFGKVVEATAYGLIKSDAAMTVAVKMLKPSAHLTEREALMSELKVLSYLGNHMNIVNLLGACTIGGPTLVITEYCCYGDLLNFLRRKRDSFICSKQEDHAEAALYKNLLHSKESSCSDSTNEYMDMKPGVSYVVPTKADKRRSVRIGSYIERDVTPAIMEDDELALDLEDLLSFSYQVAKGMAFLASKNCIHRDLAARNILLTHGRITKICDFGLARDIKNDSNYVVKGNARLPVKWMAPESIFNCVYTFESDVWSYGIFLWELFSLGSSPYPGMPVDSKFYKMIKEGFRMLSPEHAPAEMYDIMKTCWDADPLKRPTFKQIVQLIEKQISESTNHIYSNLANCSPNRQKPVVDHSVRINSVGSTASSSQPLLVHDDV
Chain of Calcium/calmodulin-dependent protein kinase type 1D (Homo sapiens) (Q8IU85 whole entry, looked up): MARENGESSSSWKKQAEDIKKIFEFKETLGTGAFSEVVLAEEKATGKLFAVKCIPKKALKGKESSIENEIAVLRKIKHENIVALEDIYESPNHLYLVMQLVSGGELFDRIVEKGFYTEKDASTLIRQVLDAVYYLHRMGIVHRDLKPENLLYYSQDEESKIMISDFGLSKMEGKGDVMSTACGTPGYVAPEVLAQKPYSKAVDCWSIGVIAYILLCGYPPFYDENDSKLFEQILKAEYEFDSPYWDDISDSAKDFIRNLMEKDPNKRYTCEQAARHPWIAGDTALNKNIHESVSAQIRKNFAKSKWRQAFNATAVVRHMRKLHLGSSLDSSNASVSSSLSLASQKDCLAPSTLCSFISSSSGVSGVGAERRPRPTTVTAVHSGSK
Chain of Platelet-derived growth factor receptor alpha (Homo sapiens) (P16234 whole entry): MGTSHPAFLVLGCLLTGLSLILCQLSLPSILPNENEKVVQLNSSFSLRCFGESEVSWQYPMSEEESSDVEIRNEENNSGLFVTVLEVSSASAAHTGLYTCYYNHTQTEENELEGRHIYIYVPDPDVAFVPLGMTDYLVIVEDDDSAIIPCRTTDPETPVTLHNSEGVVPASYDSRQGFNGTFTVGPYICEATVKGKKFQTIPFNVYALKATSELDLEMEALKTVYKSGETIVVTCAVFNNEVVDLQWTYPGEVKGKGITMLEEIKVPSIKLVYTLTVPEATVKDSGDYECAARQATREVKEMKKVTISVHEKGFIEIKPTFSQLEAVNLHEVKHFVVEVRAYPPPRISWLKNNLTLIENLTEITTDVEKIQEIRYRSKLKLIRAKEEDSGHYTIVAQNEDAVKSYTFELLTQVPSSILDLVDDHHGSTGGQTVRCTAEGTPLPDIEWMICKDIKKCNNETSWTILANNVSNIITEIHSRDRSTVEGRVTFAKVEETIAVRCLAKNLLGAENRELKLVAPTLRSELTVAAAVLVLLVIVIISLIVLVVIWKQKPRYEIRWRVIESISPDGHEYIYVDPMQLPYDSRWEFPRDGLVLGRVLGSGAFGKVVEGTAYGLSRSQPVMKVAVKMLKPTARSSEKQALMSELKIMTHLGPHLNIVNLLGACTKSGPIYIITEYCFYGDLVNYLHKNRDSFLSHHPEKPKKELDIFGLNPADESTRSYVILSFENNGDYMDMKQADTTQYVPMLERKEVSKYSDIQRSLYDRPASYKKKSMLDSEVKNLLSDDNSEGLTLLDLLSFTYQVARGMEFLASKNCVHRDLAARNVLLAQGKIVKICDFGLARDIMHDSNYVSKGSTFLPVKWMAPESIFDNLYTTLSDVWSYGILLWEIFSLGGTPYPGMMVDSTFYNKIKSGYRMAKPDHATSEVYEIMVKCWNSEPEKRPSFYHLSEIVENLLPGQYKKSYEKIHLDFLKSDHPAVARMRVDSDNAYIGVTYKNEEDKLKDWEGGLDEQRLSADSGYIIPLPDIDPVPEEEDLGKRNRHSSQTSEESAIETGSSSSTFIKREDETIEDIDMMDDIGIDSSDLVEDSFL
Chain of Serine/threonine-protein kinase B-raf (Homo sapiens) (P15056 whole entry): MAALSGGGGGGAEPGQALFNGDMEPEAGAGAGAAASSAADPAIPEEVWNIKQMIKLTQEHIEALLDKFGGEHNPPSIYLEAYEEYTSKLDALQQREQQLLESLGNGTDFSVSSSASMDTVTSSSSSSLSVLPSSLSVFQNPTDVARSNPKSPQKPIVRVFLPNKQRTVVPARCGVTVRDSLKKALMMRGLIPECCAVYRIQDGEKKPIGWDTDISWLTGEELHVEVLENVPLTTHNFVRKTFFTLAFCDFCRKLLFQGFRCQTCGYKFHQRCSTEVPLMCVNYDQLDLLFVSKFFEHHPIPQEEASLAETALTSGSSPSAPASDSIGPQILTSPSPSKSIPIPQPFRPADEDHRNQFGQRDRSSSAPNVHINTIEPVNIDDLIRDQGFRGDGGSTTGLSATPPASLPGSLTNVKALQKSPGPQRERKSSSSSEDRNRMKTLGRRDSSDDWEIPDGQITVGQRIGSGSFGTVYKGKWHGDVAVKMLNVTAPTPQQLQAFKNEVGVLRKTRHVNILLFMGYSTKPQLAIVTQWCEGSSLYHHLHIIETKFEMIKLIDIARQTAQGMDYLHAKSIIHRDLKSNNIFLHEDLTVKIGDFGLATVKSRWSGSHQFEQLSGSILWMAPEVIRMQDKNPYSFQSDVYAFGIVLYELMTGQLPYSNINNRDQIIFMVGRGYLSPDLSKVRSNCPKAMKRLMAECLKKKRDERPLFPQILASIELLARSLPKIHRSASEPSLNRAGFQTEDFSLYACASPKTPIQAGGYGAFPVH
Chain of Glycogen synthase kinase-3 beta (Homo sapiens) (P49841 whole entry, looked up): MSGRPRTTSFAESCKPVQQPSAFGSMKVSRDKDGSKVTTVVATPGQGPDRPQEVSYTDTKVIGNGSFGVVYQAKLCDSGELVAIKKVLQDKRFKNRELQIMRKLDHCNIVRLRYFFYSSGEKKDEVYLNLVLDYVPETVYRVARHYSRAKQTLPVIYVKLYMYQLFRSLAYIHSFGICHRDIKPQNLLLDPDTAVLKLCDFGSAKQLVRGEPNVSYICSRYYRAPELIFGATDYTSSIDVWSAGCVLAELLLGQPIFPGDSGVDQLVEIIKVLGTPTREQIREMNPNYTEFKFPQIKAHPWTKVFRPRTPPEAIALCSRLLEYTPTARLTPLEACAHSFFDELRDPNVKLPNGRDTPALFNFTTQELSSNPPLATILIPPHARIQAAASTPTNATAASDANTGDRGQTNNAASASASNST

Compound	inhibition [1]	inhibition [2]	inhibition [3]	inhibition [4]	inhibition [5]	inhibition [6]	inhibition [7]	inhibition [8]	inhibition [9]	inhibition [10]	Activity [11]	inhibition [12]	inhibition (MDA-MB-231)
O=C1c2ccccc2CN1c1nc(NC2CCCCC2)c2nc[nH]c2n1	0%	11%	6%	1%	0%	7%	15%	3%	12%	7%	Toxic	0%	
O=c1c2ccccc2[se]n1-c1nc(NC2CCCCC2)c2nc[nH]c2n1	0%	16%	6%	1%	1%	10%	17%	11%	22%	10%		4%	
O=c1c2ccccc2[se]n1-c1nc(N[C@H]2CC[Se]C2)c2nc[nH]c2n1	0%	1%	9%	2%	5%	0%	18%	0%	53%	29%	Non-Toxic	8%	Active
